From patent US20260217767A1, “NOVEL A4B7 THIOETHER PEPTIDE DIMER ANTAGONISTS” (Protagonist Therapeutics, Inc., priority 2014, published 2026)
Where a SMILES comes first, the peptide text is derived from it.

Biological target: T1, RPMI 8866 cells (Homo sapiens, UniProt P13612+P26010)
T1 sequence (P13612 34-1032): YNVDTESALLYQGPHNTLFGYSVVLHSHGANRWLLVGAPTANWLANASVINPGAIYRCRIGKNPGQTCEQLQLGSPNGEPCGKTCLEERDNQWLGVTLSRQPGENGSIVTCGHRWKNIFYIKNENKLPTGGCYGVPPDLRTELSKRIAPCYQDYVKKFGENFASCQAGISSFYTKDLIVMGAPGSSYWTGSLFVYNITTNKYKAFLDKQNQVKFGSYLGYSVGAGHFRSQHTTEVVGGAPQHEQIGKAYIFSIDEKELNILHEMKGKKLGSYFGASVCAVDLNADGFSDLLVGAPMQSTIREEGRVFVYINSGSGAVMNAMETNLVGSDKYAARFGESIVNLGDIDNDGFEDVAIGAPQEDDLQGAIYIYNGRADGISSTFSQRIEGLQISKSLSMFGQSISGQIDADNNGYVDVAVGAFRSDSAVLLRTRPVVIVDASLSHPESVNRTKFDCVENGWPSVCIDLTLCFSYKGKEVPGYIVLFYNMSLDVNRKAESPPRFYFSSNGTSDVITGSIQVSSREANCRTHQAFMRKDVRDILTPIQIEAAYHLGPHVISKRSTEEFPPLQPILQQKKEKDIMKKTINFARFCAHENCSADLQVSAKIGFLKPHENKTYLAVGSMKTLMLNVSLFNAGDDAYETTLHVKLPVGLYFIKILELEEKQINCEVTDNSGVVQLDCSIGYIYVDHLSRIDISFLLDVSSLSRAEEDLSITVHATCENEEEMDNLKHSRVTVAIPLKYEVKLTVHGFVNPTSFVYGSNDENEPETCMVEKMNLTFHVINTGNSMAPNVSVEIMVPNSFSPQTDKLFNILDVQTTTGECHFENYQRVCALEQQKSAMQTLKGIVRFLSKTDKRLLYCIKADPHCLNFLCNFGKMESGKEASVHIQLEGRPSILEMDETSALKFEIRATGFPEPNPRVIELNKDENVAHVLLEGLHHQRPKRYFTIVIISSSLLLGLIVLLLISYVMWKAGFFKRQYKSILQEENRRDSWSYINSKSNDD
T1 sequence (P26010 20-798): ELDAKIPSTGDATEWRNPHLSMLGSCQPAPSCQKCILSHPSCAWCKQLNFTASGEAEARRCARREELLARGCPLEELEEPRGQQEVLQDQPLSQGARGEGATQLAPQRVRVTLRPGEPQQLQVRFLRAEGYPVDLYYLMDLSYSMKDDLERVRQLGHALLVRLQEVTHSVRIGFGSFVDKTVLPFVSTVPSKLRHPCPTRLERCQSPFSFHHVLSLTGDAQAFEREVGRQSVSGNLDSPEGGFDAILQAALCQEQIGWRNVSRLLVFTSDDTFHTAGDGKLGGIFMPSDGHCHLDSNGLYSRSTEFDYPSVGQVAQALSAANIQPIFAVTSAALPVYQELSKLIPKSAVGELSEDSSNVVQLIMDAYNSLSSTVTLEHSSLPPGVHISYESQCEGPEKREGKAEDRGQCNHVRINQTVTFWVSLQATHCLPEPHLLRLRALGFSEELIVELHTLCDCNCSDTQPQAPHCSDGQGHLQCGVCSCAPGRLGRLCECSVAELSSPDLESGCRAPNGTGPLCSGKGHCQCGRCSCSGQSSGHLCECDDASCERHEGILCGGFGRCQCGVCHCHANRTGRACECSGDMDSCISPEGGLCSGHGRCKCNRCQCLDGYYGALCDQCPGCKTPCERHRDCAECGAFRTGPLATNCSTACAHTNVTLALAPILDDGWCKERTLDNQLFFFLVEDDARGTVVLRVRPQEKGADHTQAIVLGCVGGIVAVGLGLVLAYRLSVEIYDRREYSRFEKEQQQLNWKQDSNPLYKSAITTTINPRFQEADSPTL
Test: α4β7-MAdCAM Cell Adhesion Assay
Assay type: cell-based
Conditions: thioether monomer peptides, Table 6; read-out: Cell-Adhesion A4B7
Summary of the method: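 RPMI 8866 cells (200,000/well) in DMEM with 1 mM MnCl2 and 0.1% BSA were allowed to adhere 30-45 min at 37° C to plates coated with rh MAdCAM-1/Fc (200 ng/well) in presence of serially diluted peptide. After washing, bound cells quantified by MTT, absorbance 570 nm, cell-free background subtracted.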

First: CC(=O)NCCCC[C@@H](NC(=O)[C@@H](CCC(=O)O)NC(=O)[C@H](Cc1ccc(O)cc1)NC(=O)[C@H]1NC(=O)[C@H](CC(C)C)NC(=O)[C@H]([C@@H](C)O)NC(=O)[C@H](CC(=O)O)NC(=O)[C@H](CO)NC(=O)[C@H](CCCNC(=N)N)N(C)C(=O)c2ccccc2CSC1(C)C)C(N)=O [compound 91] (HELM PEPTIDE1{[meR].S.D.T.L.[Pen].Y.[dE].[dK].[am]}|PEPTIDE2{[ac]}|CHEM1{[O=C(c1ccccc1C[*:2])[*:1]]}$PEPTIDE1,PEPTIDE2,9:R3-1:R2|PEPTIDE1,CHEM1,1:R1-1:R1|PEPTIDE1,CHEM1,6:R3-1:R2$$$V2.0)
Second: CC(C)C[C@@H]1NC(=O)[C@H]([C@@H](C)O)NC(=O)[C@H](CC(=O)O)NC(=O)[C@H](CO)NC(=O)[C@H](CCCNC(=N)N)N(C)C(=O)c2ccccc2CSC(C)(C)[C@@H](C(=O)N[C@@H](Cc2c[nH]c3ccccc23)C(=O)N[C@H](CCC(=O)O)C(=O)N[C@@H](Cc2ccc(O)cc2)C(N)=O)NC1=O [compound 104] (HELM PEPTIDE1{[meR].S.D.T.L.[Pen].W.[dE].Y.[am]}|CHEM1{[O=C(c1ccccc1C[*:2])[*:1]]}$PEPTIDE1,CHEM1,1:R1-1:R1|PEPTIDE1,CHEM1,6:R3-1:R2$$$V2.0)
The IC50 of the first is higher: 100 to 1000 nM for the first, 25 to 100 nM for the second.

Compared with `CC(C)C[C@@H]1NC(=O)[C@H]([C@@H](C)O)NC(=O)[C@H](CC(=O)O)NC(=O)[C@H](CO)NC(=O)[C@H](CCCNC(=N)N)N(C)C(=O)c2ccccc2CSC(C)(C)[C@@H](C(=O)N[C@@H](Cc2c[nH]c3ccccc23)C(=O)N[C@@H](CCC(=O)O)C(=O)N[C@@H](CN)C(N)=O)NC1=O` [compound 92] (HELM PEPTIDE1{[meR].S.D.T.L.[Pen].W.E.[NC[C@H](N[*:1])C(=O)[*:2]].[am]}|CHEM1{[O=C(c1ccccc1C[*:2])[*:1]]}$PEPTIDE1,CHEM1,1:R1-1:R1|PEPTIDE1,CHEM1,6:R3-1:R2$$$V2.0), `CC(C)C[C@@H]1NC(=O)[C@H]([C@@H](C)O)NC(=O)[C@H](CC(=O)O)NC(=O)[C@H](CO)NC(=O)[C@H](CCCNC(=N)N)N(C)C(=O)c2ccccc2CSC(C)(C)[C@@H](C(=O)N[C@@H](Cc2c[nH]c3ccccc23)C(=O)N[C@H](CCC(=O)O)C(=O)N[C@@H](CN)C(N)=O)NC1=O` [compound 94] (HELM PEPTIDE1{[meR].S.D.T.L.[Pen].W.[dE].[NC[C@H](N[*:1])C(=O)[*:2]].[am]}|CHEM1{[O=C(c1ccccc1C[*:2])[*:1]]}$PEPTIDE1,CHEM1,1:R1-1:R1|PEPTIDE1,CHEM1,6:R3-1:R2$$$V2.0) is higher in IC50: 25 to 100 nM for the first, 100 to 1000 nM for the second. The first is the more potent here.

First: CC(C)C[C@@H]1NC(=O)[C@H]([C@@H](C)O)NC(=O)[C@H](CC(=O)O)NC(=O)[C@H](CO)NC(=O)[C@H](CCCNC(=N)N)N(C)C(=O)c2ccccc2CSC(C)(C)[C@@H](C(=O)N[C@@H](Cc2c[nH]c3ccccc23)C(=O)N[C@@H](CCC(=O)O)C(=O)N[C@@H](CCN)C(N)=O)NC1=O [compound 93] (HELM PEPTIDE1{[meR].S.D.T.L.[Pen].W.E.[Dab].[am]}|CHEM1{[O=C(c1ccccc1C[*:2])[*:1]]}$PEPTIDE1,CHEM1,1:R1-1:R1|PEPTIDE1,CHEM1,6:R3-1:R2$$$V2.0)
Second: CC(C)C[C@@H]1NC(=O)[C@H]([C@@H](C)O)NC(=O)[C@H](CC(=O)O)NC(=O)[C@H](CO)NC(=O)[C@H](CCCNC(=N)N)N(C)C(=O)c2ccccc2CSC(C)(C)[C@@H](C(=O)N[C@@H](Cc2c[nH]c3ccccc23)C(=O)N[C@H](CCC(=O)O)C(=O)N[C@@H](CCN)C(N)=O)NC1=O [compound 95] (HELM PEPTIDE1{[meR].S.D.T.L.[Pen].W.[dE].[Dab].[am]}|CHEM1{[O=C(c1ccccc1C[*:2])[*:1]]}$PEPTIDE1,CHEM1,1:R1-1:R1|PEPTIDE1,CHEM1,6:R3-1:R2$$$V2.0)
The IC50 of the first is lower: 25 to 100 nM for the first, 100 to 1000 nM for the second.

Compared with `CC(C)C[C@@H]1NC(=O)[C@H]([C@@H](C)O)NC(=O)[C@H](CC(=O)O)NC(=O)[C@H](CO)NC(=O)[C@H](CCCNC(=N)N)N(C)C(=O)c2ccccc2CSC(C)(C)[C@@H](C(=O)N[C@@H](Cc2c[nH]c3ccccc23)C(=O)N[C@@H](CCC(=O)O)C(N)=O)NC1=O` [compound 96] (HELM PEPTIDE1{[meR].S.D.T.L.[Pen].W.E.[am]}|CHEM1{[O=C(c1ccccc1C[*:2])[*:1]]}$PEPTIDE1,CHEM1,1:R1-1:R1|PEPTIDE1,CHEM1,6:R3-1:R2$$$V2.0), `CC(C)C[C@@H]1NC(=O)[C@H]([C@@H](C)O)NC(=O)[C@H](CC(=O)O)NC(=O)[C@H](CO)NC(=O)[C@H](CCCNC(=N)N)N(C)C(=O)c2ccccc2CSC(C)(C)[C@@H](C(=O)N[C@@H](Cc2c[nH]c3ccccc23)C(=O)N[C@H](CCC(=O)O)C(=O)N[C@@H](CO)C(N)=O)NC1=O` [compound 100] (HELM PEPTIDE1{[meR].S.D.T.L.[Pen].W.[dE].S.[am]}|CHEM1{[O=C(c1ccccc1C[*:2])[*:1]]}$PEPTIDE1,CHEM1,1:R1-1:R1|PEPTIDE1,CHEM1,6:R3-1:R2$$$V2.0) is lower in IC50: 100 to 1000 nM for the first, 25 to 100 nM for the second. The second is the more potent here.

Compared with `CC(C)C[C@@H]1NC(=O)[C@H]([C@@H](C)O)NC(=O)[C@H](CC(=O)O)NC(=O)[C@H](CO)NC(=O)[C@H](CCCNC(=N)N)N(C)C(=O)c2ccccc2CSC(C)(C)[C@@H](C(=O)N[C@@H](Cc2c[nH]c3ccccc23)C(=O)N[C@H](CCC(=O)O)C(=O)N[C@@H](Cc2ccccc2)C(N)=O)NC1=O` [compound 101] (HELM PEPTIDE1{[meR].S.D.T.L.[Pen].W.[dE].F.[am]}|CHEM1{[O=C(c1ccccc1C[*:2])[*:1]]}$PEPTIDE1,CHEM1,1:R1-1:R1|PEPTIDE1,CHEM1,6:R3-1:R2$$$V2.0), `CC(C)C[C@@H]1NC(=O)[C@H]([C@@H](C)O)NC(=O)[C@H](CC(=O)O)NC(=O)[C@H](CO)NC(=O)[C@H](CCCNC(=N)N)N(C)C(=O)c2ccccc2CSC(C)(C)[C@@H](C(=O)N[C@@H](Cc2c[nH]c3ccccc23)C(=O)N[C@H](CCC(=O)O)C(=O)N[C@H](Cc2ccccc2)C(N)=O)NC1=O` [compound 107] (HELM PEPTIDE1{[meR].S.D.T.L.[Pen].W.[dE].[dF].[am]}|CHEM1{[O=C(c1ccccc1C[*:2])[*:1]]}$PEPTIDE1,CHEM1,1:R1-1:R1|PEPTIDE1,CHEM1,6:R3-1:R2$$$V2.0) is lower in IC50: 100 to 1000 nM for the first, 25 to 100 nM for the second.

`CC(C)C[C@@H]1NC(=O)[C@H]([C@@H](C)O)NC(=O)[C@H](CC(=O)O)NC(=O)[C@H](CO)NC(=O)[C@H](CCCNC(=N)N)N(C)C(=O)c2ccccc2CSC(C)(C)[C@@H](C(=O)N[C@@H](Cc2c[nH]c3ccccc23)C(=O)N[C@H](CCC(=O)O)C(=O)N[C@@H](Cc2c[nH]cn2)C(N)=O)NC1=O` [compound 102] (HELM PEPTIDE1{[meR].S.D.T.L.[Pen].W.[dE].H.[am]}|CHEM1{[O=C(c1ccccc1C[*:2])[*:1]]}$PEPTIDE1,CHEM1,1:R1-1:R1|PEPTIDE1,CHEM1,6:R3-1:R2$$$V2.0) and `CC(C)C[C@@H]1NC(=O)[C@H]([C@@H](C)O)NC(=O)[C@H](CC(=O)O)NC(=O)[C@H](CO)NC(=O)[C@H](CCCNC(=N)N)N(C)C(=O)c2ccccc2CSC(C)(C)[C@@H](C(=O)N[C@@H](Cc2c[nH]c3ccccc23)C(=O)N[C@H](CCC(=O)O)C(=O)N[C@H](CO)C(N)=O)NC1=O` [compound 106] (HELM PEPTIDE1{[meR].S.D.T.L.[Pen].W.[dE].[dS].[am]}|CHEM1{[O=C(c1ccccc1C[*:2])[*:1]]}$PEPTIDE1,CHEM1,1:R1-1:R1|PEPTIDE1,CHEM1,6:R3-1:R2$$$V2.0) fall in the same range of IC50: 25 to 100 nM for the first, 25 to 100 nM for the second.
